In brackets after ≈: the same amount, converted by molar mass.
Legend:
[1] = molecular target: cGMP-specific 3',5'-cyclic phosphodiesterase (Bos taurus, UniProt Q28156); assay: Inhibition of bovine PDE5 after 24 hrs by HTRF
[2] = Aqueous solubility in PBS at pH 7.4; format: physicochemical

| IC50 [1] | solubility [2] | Structure (SMILES) |
| --- | --- | --- |
| 91 nM | 2.4 µM (≈ 1.08 µg/mL) | O=C1[C@H]2Cc3c([nH]c4ccccc34)[C@@H](c3ccc4c(c3)OCO4)N2C(=O)CN1c1ccccc1 |
| 16 nM |  | COc1ccc(N2CC(=O)N3[C@H](c4ccc5c(c4)OCO5)c4[nH]c5ccccc5c4C[C@@H]3C2=O)cc1 |
| 57 nM |  | O=C1[C@H]2Cc3c([nH]c4ccccc34)[C@@H](c3ccc4c(c3)OCO4)N2C(=O)CN1c1cccs1 |
| 18 nM |  | O=C1[C@H]2Cc3c([nH]c4ccccc34)[C@@H](c3ccc4c(c3)OCO4)N2C(=O)CN1c1ccsc1 |
| 141 nM |  | O=C1[C@H]2Cc3c([nH]c4ccccc34)[C@@H](c3ccc4c(c3)OCO4)N2C(=O)CN1c1cccc(Cl)c1 |
| 122 nM |  | O=C1[C@H]2Cc3c([nH]c4ccccc34)[C@@H](c3ccc4c(c3)OCO4)N2C(=O)CN1c1ccc([N+](=O)[O-])cc1 |
| 377 nM |  | O=C1[C@H]2Cc3c([nH]c4ccccc34)[C@@H](c3ccc4c(c3)OCO4)N2C(=O)CN1c1ccc(C(F)(F)F)cc1 |
| 152 nM |  | CCCCc1ccc(N2CC(=O)N3[C@H](c4ccc5c(c4)OCO5)c4[nH]c5ccccc5c4C[C@@H]3C2=O)cc1 |
| 28 nM | 33 µM (≈ 14.9 µg/mL) | O=C1[C@H]2Cc3c([nH]c4ccccc34)[C@@H](c3ccc4c(c3)OCO4)N2C(=O)CN1c1cccnc1 |
| 53 nM | 25 µM (≈ 11.3 µg/mL) | O=C1[C@H]2Cc3c([nH]c4ccccc34)[C@@H](c3ccc4c(c3)OCO4)N2C(=O)CN1c1cncnc1 |
| 68 nM |  | Cc1cccc(N2CC(=O)N3[C@H](c4ccc5c(c4)OCO5)c4[nH]c5ccccc5c4C[C@@H]3C2=O)c1 |
| 134 nM |  | O=C1[C@H]2Cc3c([nH]c4ccccc34)[C@@H](c3ccc4c(c3)OCO4)N2C(=O)CN1c1ccc(Cl)cc1 |
|  | 9.7 µM (≈ 3.78 µg/mL) | CN1CC(=O)N2[C@H](c3ccc4c(c3)OCO4)c3[nH]c4ccccc4c3C[C@@H]2C1=O |
